Patent US8440666B2, “Pyridazinone compounds and P2X7 receptor inhibitors” (Nissan Chemical Industries, Ltd., priority 2007, dated 2013)
Counter-ions that a name gives are not always drawn.

Target: T1, Human P2X7 (hP2X7) receptor (Homo sapiens, UniProt Q99572)
T1 construct: myc-His (from the pcDNA3.1/myc-HisA vector); expressed in transfected cells
T1 sequence (Q99572 1-595): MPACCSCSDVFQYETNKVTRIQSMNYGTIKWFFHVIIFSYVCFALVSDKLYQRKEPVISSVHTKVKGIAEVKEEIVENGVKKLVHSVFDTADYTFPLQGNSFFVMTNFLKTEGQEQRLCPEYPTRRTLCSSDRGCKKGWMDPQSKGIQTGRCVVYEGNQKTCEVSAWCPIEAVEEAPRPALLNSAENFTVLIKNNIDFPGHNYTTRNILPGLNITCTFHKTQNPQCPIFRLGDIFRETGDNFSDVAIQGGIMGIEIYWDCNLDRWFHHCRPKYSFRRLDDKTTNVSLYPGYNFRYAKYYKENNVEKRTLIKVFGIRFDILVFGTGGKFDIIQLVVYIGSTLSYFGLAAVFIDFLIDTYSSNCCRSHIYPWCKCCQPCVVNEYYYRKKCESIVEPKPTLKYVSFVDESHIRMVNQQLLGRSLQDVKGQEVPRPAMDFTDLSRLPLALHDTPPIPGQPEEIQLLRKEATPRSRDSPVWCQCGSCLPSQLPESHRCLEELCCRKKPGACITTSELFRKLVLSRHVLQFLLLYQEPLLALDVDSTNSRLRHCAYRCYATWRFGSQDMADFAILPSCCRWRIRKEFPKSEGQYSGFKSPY
Assay: Dye assay: BzATP-induced Yo-Pro-1 uptake in HEK293 cells stably expressing hP2X7
Type: cell-based
Details: BzATP 0.1 mM, Yo-Pro-1 2 μM, 30 min pre-treatment, 90 min incubation
Description: Human P2X7 (hP2×7) was cloned from a normal human brain total RNA library by reverse transcription (using SuperScript II (Invitrogen)) and PCR (using KOD-plus-(TOYOBO)). PCR primers were designed according to hP2X7 sequence registered in GENBANK with a putative amino acid sequence consisting of 595 amino acid residues. The PCR fragments were inserted into pcDNA3.1/myc-HisA vector (Invitrogen) and sequenced for confirmation.
HEK293 cells were transfected with hP2×7/pcDNA3.1/myc-HisA by lipofection, and 1 day later, the cells were treated with 1 mg/mL G418, and resistant cells were selected by appropriately dilution. The resistant cells were cloned by reseeding at a low density.
P2X7 receptor antagonists were screened by a dye uptake assay using HEK293 cells stably expressing hP2×7. Cells were plated on a type I collagen-coated black/clear bottom 96-well plate at 20000 cells/well and a day later, treated with varying concentrations of various test compounds for 30 minutes, then treated with a dye (Yo-Pro-1) (final concentration 2 μM) and BzATP (final concentration 0.1 mM) and incubated for 90 minutes. Then, the fluorescence (indicating the BzATP-induced Yo-Pro-1 uptake mediated by the P2X7 receptor) was measured with a microplate reader (excitation wavelength: 485 nm, emission wavelength: 535 nm). The % inhibition rates were calculated and plotted against the logarithms of the concentrations to determine IC50.

Going from `COc1nnc(Cl)cc1C(C)NC(=O)Cn1ncc(N[C@@H]2C[C@@H]3C[C@H]([C@H]2C)C3(C)C)c(Cl)c1=O` (stereo partly drawn) [compound 438] to `C[C@@H]1[C@H]2C[C@@H](C[C@H]1Nc1cnn(CC(=O)NCc3ccnc(F)c3Cl)c(=O)c1Cl)C2(C)C` [compound 448], the IC50 rises from 1.7 nM to 14 nM (8.2-fold).

Same assay, conditions: BzATP (0.1 mM)-induced Yo-Pro-1 uptake, compounds 30 min pre-treatment, 90 min incubation

First: C[C@@H]1[C@H]2C[C@@H](C[C@H]1Nc1cnn(CC(=S)NCc3ccncc3)c(=O)c1Br)C2(C)C [Synthetic Example 156, 2-{5-Bromo-6-oxo-4-[(1R,2R,3R,5S)-2,6,6-trimethylbicyclo[3.1.1]hept-3-ylamino]pyridazin-1(6H)-yl}-N-(pyridin-4-ylmethyl)ethanethioamide]
Second: C[C@@H]1[C@H]2C[C@@H](C[C@H]1Nc1cnn(Cc3ccncc3)c(=O)c1Br)C2(C)C [Synthetic Example 394, 4-Bromo-2-(pyridin-4-ylmethyl)-5-{[(1R,2R,3R,5S)-2,6,6-trimethylbicyclo[3.1.1]hept-3-yl]amino}pyridazin-3(2H)-one]
The IC50 of the first is 9.2-fold lower: 24 nM for the first, 220 nM for the second. The first is the more potent here.

First: CC(C)NC(=O)Cn1ncc(N[C@@H]2C[C@@H]3C[C@H]([C@H]2C)C3(C)C)c(Br)c1=O [compound 2]
Second: CC(C)NC(=O)Cn1ncc(N[C@@H]2C[C@@H]3C[C@H]([C@H]2C)C3(C)C)c(Cl)c1=O [compound 134]
The IC50 of the first is 2.5-fold higher: 51 nM for the first, 20 nM for the second. The second is the more potent here.

`C[C@@H]1[C@H]2C[C@@H](C[C@H]1Nc1cnn(CC(=O)NC(CC(N)=O)c3ccncc3)c(=O)c1Br)C2(C)C` (stereo partly drawn) [Synthetic Example 428, 3-({[5-Bromo-6-oxo-4-{[(1R,2R,3R,5S)-2,6,6-trimethylbicyclo[3.1.1]hept-3-yl]amino}pyridazin-1(6H)-yl]acetyl}amino)-3-(pyridin-4-yl)propanamide] and `CCC(NC(=O)Cn1ncc(NC2C[C@@H]3CC([C@H]2C)C3(C)C)c(OC)c1=O)c1ccncc1` (stereo partly drawn) [Synthetic Example 385] are within 1.5-fold of each other in IC50: 27 nM for the first, 39 nM for the second.

Going from `Cc1cncnc1CNC(=O)Cn1ncc(N[C@@H]2C[C@@H]3C[C@H]([C@H]2C)C3(C)C)c(Cl)c1=O` [compound 281] to `Cc1cnccc1CNC(=O)Cn1ncc(N[C@@H]2C[C@@H]3C[C@H]([C@H]2C)C3(C)C)c(Br)c1=O` [compound 170], the IC50 falls from 190 nM to 3.1 nM (61-fold).

`C[C@@H]1[C@H]2C[C@@H](C[C@H]1Nc1cnn(CC(=O)NCc3ccncc3)c(=O)c1C(=O)O)C2(C)C` [Synthetic Example 406, 3-Oxo-2-{2-oxo-2-[(pyridin-4-ylmethyl)amino]ethyl}-5-{[(1R,2R,3R,5S)-2,6,6-trimethylbicyclo[3.1.1]hept-3-yl]amino}-2,3-dihydropyridazine-4-carboxylic Acid] and `C[C@@H]1[C@H]2C[C@@H](C[C@H]1Nc1cnn(CC(=O)NCc3ccncc3)c(=O)c1C#N)C2(C)C` [Synthetic Example 387, 2-[5-Cyano-6-oxo-4-{[(1R,2R,3R,5S)-2,6,6-trimethylbicyclo[3.1.1]hept-3-yl]amino}pyridazin-1(6H)-yl]-N-(pyridin-4-ylmethyl)acetamide] are within 1.5-fold of each other in IC50: 40 nM for the first, 37 nM for the second.

Compared with `Cc1cc(NC(=O)Cn2ncc(N[C@@H]3C[C@@H]4C[C@H]([C@H]3C)C4(C)C)c(Cl)c2=O)sn1` [compound 292], `C[C@@H]1[C@H]2C[C@@H](C[C@H]1Nc1cnn(CC(=O)NCc3ccnc(C#N)c3)c(=O)c1Cl)C2(C)C` [compound 254] is 2.5-fold lower in IC50: 68 nM for the first, 27 nM for the second. The second is the more potent here.

First: C[C@@H]1[C@H]2C[C@@H](C[C@H]1Nc1cnn(CC(=O)NCc3ccnc4ccccc34)c(=O)c1Br)C2(C)C [compound 167]
Second: C[C@@H]1[C@H]2C[C@@H](C[C@H]1Nc1cnn(CC(=O)NCc3ccnc(Cl)c3)c(=O)c1Br)C2(C)C [compound 99]
The IC50 of the first is 1.8-fold lower: 22 nM for the first, 39 nM for the second. The first is the more potent here.

Compared with `C[C@@H]1[C@H]2C[C@@H](C[C@H]1Nc1cnn(CC(=O)NCCc3ccccc3)c(=O)c1Br)C2(C)C` [compound 6], `C[C@@H]1[C@H]2C[C@@H](C[C@H]1Nc1cnn(CC(=O)NC(C(N)=O)c3ccccc3)c(=O)c1Br)C2(C)C` (stereo partly drawn) [Synthetic Example 404, N-(2-Amino-2-oxo-1-phenylethyl)-2-[5-bromo-6-oxo-4-{[(1R,2R,3R,5S)-2,6,6-trimethylbicyclo[3.1.1]hept-3-yl]amino}pyridazin-1(6H)-yl]acetamide] is 1.8-fold lower in IC50: 86 nM for the first, 47 nM for the second.

Going from `CCC(NC(=O)Cn1ncc(N[C@@H]2C[C@@H]3C[C@@H](C3(C)C)[C@]2(C)O)c(Cl)c1=O)c1ccncc1` (stereo partly drawn) [compound 360] to `CC(NC(=O)Cn1ncc(N[C@@H]2C[C@@H]3C[C@@H](C3(C)C)[C@]2(C)O)c(Cl)c1=O)c1ccnnc1` (stereo partly drawn) [compound 364], the IC50 falls from 14 nM to 3.4 nM (4.1-fold).

Going from `C[C@@H]1[C@H]2C[C@@H](C[C@H]1Nc1cnn(CC(=O)NC(c3ccccc3)c3ccncc3)c(=O)c1Br)C2(C)C` (stereo partly drawn) [compound 169] to `C[C@@H]1[C@H]2C[C@@H](C[C@H]1Nc1cnn(CC(=O)N[C@@H](CO)c3ccccc3)c(=O)c1Cl)C2(C)C` [compound 271], the IC50 falls from 300 nM to 14 nM (21-fold).

First: Cc1cnccc1CNC(=O)Cn1ncc(N[C@@H]2C[C@@H]3C[C@@H](C3(C)C)[C@]2(C)O)c(Cl)c1=O [compound 361]
Second: C[C@@H]1[C@H]2C[C@@H](C[C@H]1Nc1cnn(CC(=O)NCc3ccncc3OCC#N)c(=O)c1Cl)C2(C)C [Synthetic Example 415]
The IC50 of the first is 2.2-fold lower: 18 nM for the first, 39 nM for the second. The first is the more potent here.

First: CSc1c(N[C@@H]2C[C@@H]3C[C@H]([C@H]2C)C3(C)C)cnn(CC(=O)NCc2ccncc2)c1=O [Synthetic Example 146]
Second: C[C@@H]1[C@H]2C[C@@H](C[C@H]1Nc1c(O)nn(CC(=O)NCc3ccncc3)c(=O)c1Cl)C2(C)C [Synthetic Example 390, 2-[5-Chloro-3-hydroxy-6-oxo-4-{[(1R,2R,3R,5S)-2,6,6-trimethylbicyclo[3.1.1]hept-3-yl]amino}pyridazin-1(6H)-yl]-N-(pyridin-4-ylmethyl)acetamide Hydrochloride]
The IC50 of the first is 3.9-fold lower: 70 nM for the first, 270 nM for the second.

`O=C(Cn1ncc(NC23CC4CC(CC2C4)C3)c(Cl)c1=O)NCc1ccnc(F)c1` [compound 343] and `CC(NC(=O)Cn1ncc(NC23CC4CC(CC2C4)C3)c(Br)c1=O)c1ccnnc1` (stereo not drawn) [compound 348] are within 1.5-fold of each other in IC50: 25 nM for the first, 26 nM for the second.

First: O=C(Cn1ncc(SC23CC4CC(CC(C4)C2)C3)c(Br)c1=O)NCc1ccncc1 [Synthetic Example 430, 2-[5-Bromo-6-oxo-4-(tricyclo[3.3.1.1^3,7]dec-1-ylsulfanyl)pyridazin-1-(6H)-yl]-N-(pyridin-4-ylmethyl)acetamide]
Second: O=C(Cn1ncc(NC2CCCCCCC2)c(Br)c1=O)NCc1ccncc1 [compound 321]
The IC50 of the first is 1.5-fold higher: 58 nM for the first, 38 nM for the second. The second is the more potent here.

`C[C@@H]1[C@H]2C[C@@H](C[C@H]1Nc1cnn(CC(=O)NC[C@H]3CCCN3C(=O)OC(C)(C)C)c(=O)c1Br)C2(C)C` [compound 201] and `C[C@@H]1[C@H]2C[C@@H](C[C@H]1Nc1cnn(CC(=O)NCC3CCCCC3)c(=O)c1Br)C2(C)C` [compound 208] are within 1.5-fold of each other in IC50: 90 nM for the first, 84 nM for the second.

`C[C@@H]1[C@H]2C[C@@H](C[C@H]1Nc1cnn(-c3cccc(C(=O)NCc4ccncc4)c3)c(=O)c1Br)C2(C)C` [Synthetic Example 162, 3-{5-Bromo-6-oxo-4-[(1R,2R,3R,5S)-2,6,6-trimethylbicyclo[3.1.1]hept-3-ylamino]pyridazin-1(6H)-yl}-N-(pyridin-4-ylmethyl)benzamide] and `C[C@@H]1[C@H]2C[C@@H](C[C@H]1Nc1cnn(-c3cccc(C(=O)NCC4(O)CCCCCC4)c3)c(=O)c1Br)C2(C)C` [Synthetic Example 409, 3-[5-Bromo-6-oxo-4-{[(1R,2R,3R,5S)-2,6,6-trimethylbicyclo[3.1.1]hept-3-yl]amino}pyridazin-1(6H)-yl]-N-[(1-hydroxycycloheptyl)methyl]benzamide] are within 1.5-fold of each other in IC50: 51 nM for the first, 71 nM for the second.

Compared with `C[C@@H]1[C@H]2C[C@@H](C[C@H]1Nc1cnn(CC(=O)NCc3ccncn3)c(=O)c1Br)C2(C)C` [compound 103], `C[C@@H]1[C@H]2C[C@@H](C[C@H]1Nc1cnn(CC(=O)N/C(=N/O)c3ccncc3)c(=O)c1Br)C2(C)C` [compound 172] is 22-fold higher in IC50: 14 nM for the first, 310 nM for the second.

`C[C@@H]1[C@H]2C[C@@H](C[C@H]1Nc1cnn(CC(=O)Nc3ccc(N(C)C)cc3)c(=O)c1Br)C2(C)C` [compound 94] and `C[C@@H]1[C@H]2C[C@@H](C[C@H]1Nc1cnn(CC(=O)Nc3ccc4c(c3)C(=O)N(C)C4=O)c(=O)c1Br)C2(C)C` [compound 88] are within 1.5-fold of each other in IC50: 64 nM for the first, 44 nM for the second.

`CC(NC(=O)Cn1ncc(NC23CC4CC(CC(C4)C2)C3)c(Cl)c1=O)c1ccnnc1` (stereo not drawn) [compound 367] showed an IC50 of 3 nM.
